Data taken from ChEMBL document CHEMBL1148572, “1-((S)-2-aminopropyl)-1H-indazol-6-ol: a potent peripherally acting 5-HT2 receptor agonist with ocular hypotensive activity” (J Med Chem, 2006).

Legend:
[1] = biological target: Glutamate receptor ionotropic AMPA (Homo sapiens) (UniProt P48058+P42263+P42262+P42261); test: Inhibition of AMPA receptor at 10 uM; type: protein-complex assay
[2] = biological target: Glutamate receptor ionotropic kainate (Homo sapiens) (UniProt P39086+Q16478+Q16099+Q13002+Q13003); test: Inhibition of kainate receptor at 10 uM; type: protein-complex assay
[3] = biological target: T1, Sodium-dependent noradrenaline transporter (Homo sapiens, UniProt P23975); test: Inhibition of NET at 100 nM
T1 sequence (P23975 whole entry): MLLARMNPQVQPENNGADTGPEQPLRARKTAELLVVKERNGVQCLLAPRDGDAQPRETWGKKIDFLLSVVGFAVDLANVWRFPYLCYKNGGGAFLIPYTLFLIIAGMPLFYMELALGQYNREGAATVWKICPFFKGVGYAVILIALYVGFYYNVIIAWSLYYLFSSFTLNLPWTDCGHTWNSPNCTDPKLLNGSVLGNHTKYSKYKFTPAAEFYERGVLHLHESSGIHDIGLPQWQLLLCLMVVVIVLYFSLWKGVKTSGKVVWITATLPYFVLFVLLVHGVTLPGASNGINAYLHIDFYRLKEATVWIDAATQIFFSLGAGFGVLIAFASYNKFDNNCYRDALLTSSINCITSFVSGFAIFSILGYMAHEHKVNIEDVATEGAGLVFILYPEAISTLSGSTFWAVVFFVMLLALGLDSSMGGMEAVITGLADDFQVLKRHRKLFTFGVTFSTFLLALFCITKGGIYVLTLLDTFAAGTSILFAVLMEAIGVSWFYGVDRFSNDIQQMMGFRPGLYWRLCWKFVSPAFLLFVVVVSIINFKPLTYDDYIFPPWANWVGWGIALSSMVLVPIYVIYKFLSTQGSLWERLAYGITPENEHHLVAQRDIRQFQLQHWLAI

[4] = biological target: Opioid receptors; mu/kappa/delta (Homo sapiens) (UniProt P41145+P41143+P35372); test: Inhibition of non selective binding to opiate receptor at 1 nM; type: protein assay
Sequence of Opioid receptors; mu/kappa/delta (Homo sapiens) (P35372 whole entry, looked up): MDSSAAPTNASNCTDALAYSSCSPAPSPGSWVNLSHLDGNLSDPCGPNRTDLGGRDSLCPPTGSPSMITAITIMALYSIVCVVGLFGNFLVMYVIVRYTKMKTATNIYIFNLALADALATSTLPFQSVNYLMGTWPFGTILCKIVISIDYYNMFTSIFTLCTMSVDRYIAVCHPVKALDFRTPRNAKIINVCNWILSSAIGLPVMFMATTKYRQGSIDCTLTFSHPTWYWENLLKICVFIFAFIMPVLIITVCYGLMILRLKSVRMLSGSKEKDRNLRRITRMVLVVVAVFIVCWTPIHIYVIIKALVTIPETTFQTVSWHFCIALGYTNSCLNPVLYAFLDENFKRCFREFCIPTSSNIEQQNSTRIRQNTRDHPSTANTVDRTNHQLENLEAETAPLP
Sequence of Opioid receptors; mu/kappa/delta (Homo sapiens) (P41143 whole entry, looked up): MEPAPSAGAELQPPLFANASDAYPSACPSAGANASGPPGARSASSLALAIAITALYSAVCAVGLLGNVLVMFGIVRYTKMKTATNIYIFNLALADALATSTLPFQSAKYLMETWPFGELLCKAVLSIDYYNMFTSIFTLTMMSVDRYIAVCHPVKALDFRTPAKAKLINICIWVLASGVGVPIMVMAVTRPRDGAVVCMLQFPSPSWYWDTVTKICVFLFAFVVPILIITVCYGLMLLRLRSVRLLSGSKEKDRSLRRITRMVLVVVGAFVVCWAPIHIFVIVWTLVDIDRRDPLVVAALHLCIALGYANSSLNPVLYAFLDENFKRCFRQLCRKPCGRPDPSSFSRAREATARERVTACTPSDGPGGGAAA
Sequence of Opioid receptors; mu/kappa/delta (Homo sapiens) (P41145 whole entry, looked up): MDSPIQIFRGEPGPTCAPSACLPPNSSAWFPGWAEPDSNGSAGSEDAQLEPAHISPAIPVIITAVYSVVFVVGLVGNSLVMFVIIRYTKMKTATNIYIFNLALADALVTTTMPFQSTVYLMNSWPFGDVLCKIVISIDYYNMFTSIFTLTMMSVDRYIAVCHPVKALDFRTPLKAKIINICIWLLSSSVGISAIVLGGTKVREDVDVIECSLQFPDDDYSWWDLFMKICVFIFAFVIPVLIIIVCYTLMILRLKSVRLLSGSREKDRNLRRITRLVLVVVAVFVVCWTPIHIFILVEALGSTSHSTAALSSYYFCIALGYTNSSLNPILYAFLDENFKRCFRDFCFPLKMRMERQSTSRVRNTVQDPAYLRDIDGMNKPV

[5] = biological target: T2, monoamine oxidase A (MAO-A) (Rattus norvegicus, UniProt P21396); test: Inhibition of monoamine oxidase A in rat brain at 10 uM; type: tissue-based
T2 sequence (P21396 whole entry): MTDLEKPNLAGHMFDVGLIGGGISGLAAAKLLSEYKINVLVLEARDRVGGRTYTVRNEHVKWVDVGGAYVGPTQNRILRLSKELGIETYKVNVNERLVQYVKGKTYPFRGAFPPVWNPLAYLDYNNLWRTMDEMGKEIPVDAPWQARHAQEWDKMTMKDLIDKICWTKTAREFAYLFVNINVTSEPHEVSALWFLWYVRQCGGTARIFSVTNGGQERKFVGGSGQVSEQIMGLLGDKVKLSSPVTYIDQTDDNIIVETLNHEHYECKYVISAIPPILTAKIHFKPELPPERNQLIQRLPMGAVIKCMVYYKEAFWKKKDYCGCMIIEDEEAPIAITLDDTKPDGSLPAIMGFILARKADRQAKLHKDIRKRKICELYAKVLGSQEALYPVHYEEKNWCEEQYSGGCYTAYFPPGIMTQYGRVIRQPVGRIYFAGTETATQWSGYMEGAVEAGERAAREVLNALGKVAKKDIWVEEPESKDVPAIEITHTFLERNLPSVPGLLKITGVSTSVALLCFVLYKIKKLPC

[6] = biological target: Estrogen receptor (Homo sapiens) (UniProt Q92731+P03372); test: Inhibition of estrogen receptor at 1 nM; type: protein assay
[7] = biological target: T3, L-type calcium channel, dihydropyridine site (Homo sapiens, UniProt O60840+Q01668+Q13698+Q13936); test: Inhibitory activity at dihydropyridine site of Calcium channel L type at 1 nM; type: protein assay
[8] = biological target: T3, L-type calcium channel, dihydropyridine site; test: Inhibitory activity at dihydropyridine site of Calcium channel L type at 10 uM; type: protein assay
[9] = biological target: Glutamate [NMDA] receptor (Homo sapiens) (UniProt Q05586+Q12879+Q13224+O15399+O60391+Q14957+Q8TCU5); test: Inhibition of MK-801 site of glutamate receptor at 1 nM; type: protein-complex assay
[10] = Inhibitory activity at site 2 of sodium channel at 10 uM
Homo sapiens = species: Homo sapiens; test: Inhibition of inositol triphosphate IP3 at 1 nM; type: functional
[11] = biological target: 5-hydroxytryptamine receptor 2A (Homo sapiens, UniProt P28223); type: cell-based, CHO
Sequence of 5-hydroxytryptamine receptor 2A (P28223 whole entry): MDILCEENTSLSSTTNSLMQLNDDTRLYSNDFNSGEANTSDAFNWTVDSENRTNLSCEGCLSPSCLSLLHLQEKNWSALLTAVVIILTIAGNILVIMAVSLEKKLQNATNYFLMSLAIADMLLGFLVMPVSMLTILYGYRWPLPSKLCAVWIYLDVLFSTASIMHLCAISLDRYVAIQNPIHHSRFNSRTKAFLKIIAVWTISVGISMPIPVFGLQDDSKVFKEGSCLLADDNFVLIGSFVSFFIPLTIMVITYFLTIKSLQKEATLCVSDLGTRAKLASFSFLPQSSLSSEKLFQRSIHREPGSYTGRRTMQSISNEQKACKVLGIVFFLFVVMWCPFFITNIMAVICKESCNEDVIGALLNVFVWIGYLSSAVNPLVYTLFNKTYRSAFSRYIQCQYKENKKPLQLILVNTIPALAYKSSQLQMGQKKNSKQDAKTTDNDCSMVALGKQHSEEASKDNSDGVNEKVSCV

[12] = biological target: Leukotriene B4 receptor (Homo sapiens) (UniProt Q9NPC1+Q15722); test: Inhibition of leukotriene B4 at 10 uM; type: protein assay
[13] = biological target: Platelet-activating factor receptor (Homo sapiens) (UniProt P25105); test: Inhibition of PAF at 1 nM
Sequence of Platelet-activating factor receptor (Homo sapiens) (P25105 whole entry): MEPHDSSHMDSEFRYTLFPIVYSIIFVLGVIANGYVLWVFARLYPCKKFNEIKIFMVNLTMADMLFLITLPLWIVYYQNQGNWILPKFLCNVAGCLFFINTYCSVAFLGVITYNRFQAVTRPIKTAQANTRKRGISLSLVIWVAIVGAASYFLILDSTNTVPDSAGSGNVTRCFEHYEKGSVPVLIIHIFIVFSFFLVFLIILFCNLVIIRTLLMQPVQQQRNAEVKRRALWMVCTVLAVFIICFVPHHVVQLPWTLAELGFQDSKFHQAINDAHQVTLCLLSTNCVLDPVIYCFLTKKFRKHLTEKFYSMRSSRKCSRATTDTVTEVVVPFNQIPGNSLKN

[14] = biological target: Platelet-activating factor receptor (Homo sapiens) (UniProt P25105); test: Inhibition of PAF at 100 nM
[15] = biological target: T4, B2 bradykinin receptor (Homo sapiens) (UniProt P30411); test: Inhibition of bradykinin 2 receptor at 100 nM
T4 sequence (whole entry): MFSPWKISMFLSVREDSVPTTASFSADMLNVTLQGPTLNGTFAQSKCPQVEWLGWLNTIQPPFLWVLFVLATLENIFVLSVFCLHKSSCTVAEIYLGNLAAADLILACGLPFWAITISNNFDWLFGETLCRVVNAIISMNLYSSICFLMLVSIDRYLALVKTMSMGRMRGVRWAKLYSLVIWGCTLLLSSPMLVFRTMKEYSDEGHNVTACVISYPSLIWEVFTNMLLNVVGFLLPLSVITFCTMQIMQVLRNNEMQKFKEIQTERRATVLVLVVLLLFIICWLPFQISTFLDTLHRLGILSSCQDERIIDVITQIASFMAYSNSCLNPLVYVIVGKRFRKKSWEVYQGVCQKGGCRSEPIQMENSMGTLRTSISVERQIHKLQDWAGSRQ

[16] = biological target: Substance-P receptor (Homo sapiens) (UniProt P25103); test: Inhibition of neurokinin 1 receptor at 10 uM
[17] = Inhibition of non selective binding to VIP at 1 nM
[18] = biological target: Adenosine receptor (Homo sapiens) (UniProt P30542+P29275+P0DMS8+P29274); test: Inhibition of non selective binding to adenosine receptor at 100 nM; type: protein assay
Sequence of Adenosine receptor (Homo sapiens) (P0DMS8 whole entry, looked up): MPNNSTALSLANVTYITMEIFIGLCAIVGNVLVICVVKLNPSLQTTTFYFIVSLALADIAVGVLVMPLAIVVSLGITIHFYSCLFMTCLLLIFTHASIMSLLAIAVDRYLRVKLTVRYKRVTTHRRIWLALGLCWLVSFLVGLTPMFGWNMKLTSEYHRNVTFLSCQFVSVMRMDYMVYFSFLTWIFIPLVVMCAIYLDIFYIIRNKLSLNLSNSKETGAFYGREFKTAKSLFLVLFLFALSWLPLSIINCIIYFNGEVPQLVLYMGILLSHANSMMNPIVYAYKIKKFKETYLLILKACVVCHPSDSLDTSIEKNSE
Sequence of Adenosine receptor (Homo sapiens) (P29274 whole entry, looked up): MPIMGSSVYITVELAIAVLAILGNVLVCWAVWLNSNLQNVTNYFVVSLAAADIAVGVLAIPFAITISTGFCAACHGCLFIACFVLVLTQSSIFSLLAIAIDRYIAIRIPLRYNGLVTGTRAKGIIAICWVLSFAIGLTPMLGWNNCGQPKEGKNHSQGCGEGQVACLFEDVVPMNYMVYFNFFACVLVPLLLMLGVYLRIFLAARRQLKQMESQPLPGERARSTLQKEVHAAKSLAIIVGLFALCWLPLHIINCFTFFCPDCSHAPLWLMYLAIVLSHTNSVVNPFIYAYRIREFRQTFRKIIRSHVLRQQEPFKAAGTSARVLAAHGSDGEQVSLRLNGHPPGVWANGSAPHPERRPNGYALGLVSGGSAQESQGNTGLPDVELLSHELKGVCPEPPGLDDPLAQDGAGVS
Sequence of Adenosine receptor (Homo sapiens) (P29275 whole entry, looked up): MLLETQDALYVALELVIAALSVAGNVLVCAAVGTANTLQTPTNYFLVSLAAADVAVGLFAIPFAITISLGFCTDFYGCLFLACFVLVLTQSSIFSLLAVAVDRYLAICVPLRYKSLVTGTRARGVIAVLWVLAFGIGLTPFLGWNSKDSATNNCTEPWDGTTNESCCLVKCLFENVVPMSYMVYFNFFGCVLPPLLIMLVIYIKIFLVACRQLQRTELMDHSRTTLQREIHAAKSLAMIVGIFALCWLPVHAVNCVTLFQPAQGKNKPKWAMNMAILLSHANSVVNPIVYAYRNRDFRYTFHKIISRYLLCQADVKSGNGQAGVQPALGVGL
Sequence of Adenosine receptor (Homo sapiens) (P30542 whole entry, looked up): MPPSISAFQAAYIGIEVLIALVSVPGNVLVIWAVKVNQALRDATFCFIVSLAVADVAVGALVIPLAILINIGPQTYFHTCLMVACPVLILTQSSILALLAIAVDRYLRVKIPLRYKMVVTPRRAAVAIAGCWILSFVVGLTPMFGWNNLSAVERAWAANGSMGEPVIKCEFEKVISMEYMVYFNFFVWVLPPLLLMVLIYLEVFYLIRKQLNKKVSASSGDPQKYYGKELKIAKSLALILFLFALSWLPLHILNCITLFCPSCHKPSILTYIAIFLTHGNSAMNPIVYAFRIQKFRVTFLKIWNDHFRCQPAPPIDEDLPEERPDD

[19] = biological target: Sigma non-opioid intracellular receptor 1 (Homo sapiens) (UniProt Q99720); test: Inhibition of non selective binding to sigma receptor at 1 nM
Sequence of Sigma non-opioid intracellular receptor 1 (Homo sapiens) (Q99720 whole entry): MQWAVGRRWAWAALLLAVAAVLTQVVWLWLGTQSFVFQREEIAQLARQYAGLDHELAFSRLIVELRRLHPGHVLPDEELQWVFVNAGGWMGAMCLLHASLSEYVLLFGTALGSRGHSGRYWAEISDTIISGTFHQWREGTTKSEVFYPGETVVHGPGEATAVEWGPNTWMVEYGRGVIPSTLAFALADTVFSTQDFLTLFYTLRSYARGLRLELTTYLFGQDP

[20] = biological target: 5-hydroxytryptamine receptor 1D (Homo sapiens, UniProt P28221); test: Inhibitory activity against 5HT1D receptor
[21] = biological target: Alpha-1A adrenergic receptor (Homo sapiens, UniProt P35348); test: Inhibitory activity against adrenergic alpha-1A receptor
[22] = biological target: T1, Sodium-dependent noradrenaline transporter; test: Inhibitory activity against NET
[23] = biological target: T5, Alpha-2C adrenergic receptor (Homo sapiens, UniProt P18825); test: Activity at adrenergic Alpha-2C receptor expressed in rat-mouse hybrid […] cell by adenylyl cyclase assay; type: functional, cell-based
T5 sequence (P18825 whole entry): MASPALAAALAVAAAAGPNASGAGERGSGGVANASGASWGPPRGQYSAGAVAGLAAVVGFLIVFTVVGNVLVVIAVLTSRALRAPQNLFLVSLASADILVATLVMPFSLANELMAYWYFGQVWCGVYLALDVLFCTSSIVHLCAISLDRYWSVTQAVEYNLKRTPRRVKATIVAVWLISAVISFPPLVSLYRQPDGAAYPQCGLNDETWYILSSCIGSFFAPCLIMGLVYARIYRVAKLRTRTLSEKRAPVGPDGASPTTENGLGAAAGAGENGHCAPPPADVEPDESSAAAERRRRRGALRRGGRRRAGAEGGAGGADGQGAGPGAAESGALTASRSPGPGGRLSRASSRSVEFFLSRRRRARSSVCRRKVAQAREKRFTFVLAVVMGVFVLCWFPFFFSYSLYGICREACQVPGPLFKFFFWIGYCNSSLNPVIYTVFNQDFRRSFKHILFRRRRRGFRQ

[24] = Distribution coefficient at pH 7.4; type: physicochemical; details: octanol/water
MDR1 (P-gp) = test: Permeability from apical to basolateral side of the MDCK cell transfected with human MDR1; type: ADME, cell-based
[25] = biological target: Alpha-1B adrenergic receptor (Homo sapiens, UniProt P35368); test: Inhibitory activity against adrenergic alpha-1B receptor
Sequence of Alpha-1B adrenergic receptor (P35368 whole entry): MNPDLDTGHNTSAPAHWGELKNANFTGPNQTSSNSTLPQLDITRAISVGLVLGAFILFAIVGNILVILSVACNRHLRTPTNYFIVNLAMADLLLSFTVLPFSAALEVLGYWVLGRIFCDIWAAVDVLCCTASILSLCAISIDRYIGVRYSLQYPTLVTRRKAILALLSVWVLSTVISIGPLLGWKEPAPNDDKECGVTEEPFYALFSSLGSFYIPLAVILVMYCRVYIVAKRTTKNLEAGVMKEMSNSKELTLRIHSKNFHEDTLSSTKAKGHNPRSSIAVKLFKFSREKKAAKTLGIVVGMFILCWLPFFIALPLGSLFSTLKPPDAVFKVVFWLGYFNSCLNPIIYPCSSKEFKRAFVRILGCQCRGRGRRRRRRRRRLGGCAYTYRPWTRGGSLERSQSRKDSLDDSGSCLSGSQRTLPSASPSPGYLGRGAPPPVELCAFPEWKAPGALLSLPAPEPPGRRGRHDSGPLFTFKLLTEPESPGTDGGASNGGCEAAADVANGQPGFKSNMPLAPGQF

[26] = biological target: Dopamine receptor (Homo sapiens) (UniProt P14416+P35462+P21918+P21917+P21728); test: Inhibition of non selective binding to dopamine receptor at 100 nM; type: protein assay

C[C@H](N)Cn1ncc2ccc(O)cc21
inhibition [1]: 7.62%
inhibition [2]: 6.62%
inhibition [3]: 3.93%
inhibition [4]: -6.1%
inhibition at 10 µM [5]: 0.82%
inhibition [6]: 10.8%
inhibition at 0.001 µM [7]: 2.17%
inhibition at 10 µM [8]: 15.2%
inhibition [9]: -7.45%
inhibition [10]: -0.61%
inhibition (Homo sapiens): 6.53%
Ki [11]: 0.012 µM
inhibition [12]: 13%
inhibition [13]: -6.53%
inhibition [14]: 24.8%
inhibition [15]: 0.41%
inhibition [16]: 33%
inhibition [17]: 5.87%
inhibition [18]: 13.6%
inhibition [19]: -2.35%
Ki [20]: 7.87 µM
Ki [21]: > 30 µM
Ki [22]: > 10 µM
EC50 [23]: 10 µM
logD [24]: 0.693
Papp A→B (MDR1 (P-gp)): 0.76 ×10⁻⁶ cm/s
Ki [25]: > 30 µM
inhibition [26]: 18.1%
